# Where a name gives a salt, the structure may show the parent alone.
# Experiments:
# sigma receptors [1] = molecular target: T1, sigma receptors (Cavia porcellus, UniProt Q60492); experiment: Experiment using [3H](+)-PTZ as a labeled ligand (affinity for sigma receptors); parameters: species or system Hartley guinea pig; conditions: [3H](+)-PTZ 5 nM; guinea pig brain membrane; 37° C., 150 minutes; averages of 4-11 samples; read-out: IC50 (inhibition of specific binding of [3H](+)-PTZ)
# T1 construct: A brain of a Hartley guinea pig (weight: 300-400 g) was excised; from tissue; host or cells: Hartley guinea pig brain, membrane preparation
# Procedure: Experiment Using [^3 H](+)-PTZ as a Labeled Ligand
# Affinities for sigma receptors were determined by the following method using [^3 H](+)-PTZ as a labeled ligand according to the report of DeHaven-Hudkins et al. (Eur. I. Pharmacol,, 227, 371-378 (1992)).
# μ receptors = μ receptors (Rattus norvegicus, UniProt P33535)
# sigma receptors [2] = molecular target: T1, sigma receptors; experiment: biochemical; parameters: species or system Hartley guinea pig; conditions: read-out: IC50 (inhibition of specific binding of [3H](+)-SKF-10047)
# [3] = test system: amount of acetylcholine in rat brain; experiment: Increasing effects on the amount of intracerebral acetylcholine (intracerebral microdialysis method); assay type: in vivo, male Wistar rat; conditions: oral, 30 minutes after administration, averages of 3-7 samples
# Procedure: (The New England Journal of Medicine, 315, 1241-1245 (1986)), the amount of acetylcholine in rat brain was then measured according to the report of Matsuno et al. (Brain Research, 575, 315-319 (1992)). […] 2. […] (The New England Journal of Medicine, 315, 1241-1245 (1986)), an experiment was performed to examine effects of the compounds of this invention on the amount of acetylcholine in rat brain. (Experimental Method) The amount of acetylcholine in rat brain was measured by the following method using intracerebral microdialysis method according to the report of Matsuno et al. (Brain Research, 575, 315-319 (1992)). […] The amount of acetylcholine in rat brain was measured with time. When it became constant, the test compound suspended in 1% methylcellulose solution was administered orally to the rat, and the amount of intracerebral acetylcholine was measured. The amount of acetylcholine in rat brain (average of six samples) to which the test compound was not administered was used as a control.
# T1 sequence (Q60492 whole entry): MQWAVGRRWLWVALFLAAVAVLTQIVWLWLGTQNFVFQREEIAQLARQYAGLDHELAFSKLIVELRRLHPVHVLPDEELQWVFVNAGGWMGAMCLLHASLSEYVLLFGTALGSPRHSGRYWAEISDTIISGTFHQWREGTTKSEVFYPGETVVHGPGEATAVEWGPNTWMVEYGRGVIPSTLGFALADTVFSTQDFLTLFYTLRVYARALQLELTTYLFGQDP
# μ receptors, sequence (P33535 whole entry): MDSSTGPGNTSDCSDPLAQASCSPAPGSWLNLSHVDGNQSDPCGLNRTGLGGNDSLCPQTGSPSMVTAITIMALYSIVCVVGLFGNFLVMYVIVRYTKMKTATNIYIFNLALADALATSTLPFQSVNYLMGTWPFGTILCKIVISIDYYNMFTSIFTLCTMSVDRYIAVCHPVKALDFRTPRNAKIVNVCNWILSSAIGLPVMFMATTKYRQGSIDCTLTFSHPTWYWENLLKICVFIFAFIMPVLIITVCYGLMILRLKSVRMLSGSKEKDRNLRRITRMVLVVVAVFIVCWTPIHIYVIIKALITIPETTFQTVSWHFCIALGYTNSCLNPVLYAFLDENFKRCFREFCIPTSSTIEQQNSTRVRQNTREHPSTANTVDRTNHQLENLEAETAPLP
Structure (SMILES),IC50 (sigma receptors [1]),IC50 (μ receptors),IC50 (sigma receptors [2]),amount of acetylcholine (% control) ([3]; 40 mg/kg),amount of acetylcholine (% control) ([3]; 80 mg/kg),amount of acetylcholine (% control) ([3]; 20 mg/kg),"IC50 (sigma receptors [2]; [3H](+)-SKF-10047 5 nM, guinea pig brain membrane, 25° C., 30 minutes)",amount of acetylcholine (% control) ([3]; 10 mg/kg)
"COc1ccc(CCN2CCN(CCc3ccccc3)CC2)cc1OC [compound No. 1-2, 1-[2-(3,4-Dimethoxyphenyl)ethyl]-4-(2-phenylethyl)piperazine dihydrochloride]",18 nM,> 10000 nM,9.32 nM,–,–,–,–,–
"COc1ccc(CCN2CCN(CCCCc3ccccc3)CC2)cc1OC.Cl.Cl [compound No. 1-4, 1-[2-(3,4-Dimethoxyphenyl)ethyl]-4-(4-phenylbutyl)piperazine dihydrochloride]",10.7 nM,–,–,146.2 % control,164.9 % control,–,–,–
"COc1ccc(CCCN2CCN(CCCc3ccccc3)CC2)cc1OC.Cl.Cl [compound No. 1-6, 1-[3-(3,4-Dimethoxyphenyl)propyl]-4-(3-phenylpropyl)piperazine dihydrochloride]",14.9 nM,–,–,176.9 % control,–,146.1 % control,–,–
"COc1ccc(CCN2CCN(Cc3ccccc3)CC2)cc1OC [compound No. 1-3, 1-[2-(3,4-Dimethoxyphenyl)ethyl]-4-benzylpiperazine dihydrochloride]",–,> 10000 nM,–,–,–,–,4.28 nM,–
"COc1ccc(CCN2CCN(CCCc3ccccc3)CC2)cc1OC.Cl.Cl [compound No. 1-1, 1-[2-(3,4-Dimethoxyphenyl)ethyl]-4-(3-phenylpropyl)piperazine dihydrochloride]",–,> 10000 nM,–,–,–,170.0 % control,–,154.3 % control
